# Paper PMC9804871, “Effect of Opicapone on Levodopa Pharmacokinetics in Patients with Fluctuating Parkinson's Disease” (Movement Disorders, 2022)
# Marks after values point to notes of the source that are not given here.
# Assay: 12-hour levodopa plasma pharmacokinetics
# Type: in vivo, human (patients with PD)
# Conditions: for Levodopa AUCτ / Levodopa Cavg / Levodopa Cmax / Levodopa Cmin: mean; for Levodopa tmax: median; for Levodopa Cmax (over all intakes of the 12-hour pharmacokinetics; Cmax,max) / Levodopa Cmin (over all intakes, excluding first predose; Cmin,min): mean (%CV); for Levodopa Cmin,min, geometric mean (90% CI): N 11; for Levodopa Cmax,max, geometric mean (90% CI): N 12
# Method: The study design is illustrated in Figure 1.
# Pharmacokinetic evaluation occurred over 12 hours with sampling every 30 minutes, except for the last sample following each LD dose in the opicapone plus four LD intake regimen, which was sampled at 1 hour. The main pharmacokinetics parameters assessed included maximum observed plasma concentration (Cmax), time to achieve peak plasma levels (tmax), minimum observed plasma concentration (Cmin), plasma elimination half‐life (t1/2), area under the curve (AUC), and fluctuation index (FI; as an expression of peak‐to‐trough fluctuation, Cmax, and Cmin, relative to average concentration [Cavg]). The pharmacokinetics of the LD metabolite 3‐O‐methyldopa (3‐OMD) was also evaluated.
# Descriptive statistics were used to summarize the pharmacokinetics parameters for LD and 3‐OMD for each of the three regimens. […] No formal comparison was performed between opicapone regimens.
# [1] = five-intake LD/CD 500/125 mg vs five-intake LD/CD 400/100 mg plus opicapone 50 mg, first LD/CD intake
# [2] = five-intake LD/CD 500/125 mg vs five-intake LD/CD 400/100 mg plus opicapone 50 mg, fourth LD/CD intake
# [3] = five-intake LD/CD 500/125 mg vs five-intake LD/CD 400/100 mg plus opicapone 50 mg
# [4] = five-intake LD/CD 500/125 mg vs five-intake LD/CD 400/100 mg plus opicapone 50 mg, second LD/CD intake
# [5] = five-intake LD/CD 500/125 mg vs five-intake LD/CD 400/100 mg plus opicapone 50 mg, third LD/CD intake
# [6] = five-intake LD/CD 500/125 mg vs four-intake LD/CD 400/100 mg plus opicapone 50 mg, first LD/CD intake
# [7] = five-intake LD/CD 500/125 mg vs four-intake LD/CD 400/100 mg plus opicapone 50 mg, fourth LD/CD intake
# [8] = five-intake LD/CD 500/125 mg vs four-intake LD/CD 400/100 mg plus opicapone 50 mg
# [9] = five-intake LD/CD 500/125 mg vs four-intake LD/CD 400/100 mg plus opicapone 50 mg, second LD/CD intake
# [10] = five-intake LD/CD 500/125 mg vs four-intake LD/CD 400/100 mg plus opicapone 50 mg, third LD/CD intake
# [11] = five-intake levodopa/carbidopa 500/125 mg vs five-intake levodopa/carbidopa 400/100 mg plus opicapone 50 mg
# [12] = five-intake levodopa/carbidopa 500/125 mg vs four-intake levodopa/carbidopa 400/100 mg plus opicapone 50 mg
substance,measurement,setting,value
levodopa/carbidopa [LD/CD],Levodopa AUCτ,[1],1788^b h · ng/mL
same,Levodopa Cavg,[1],596^b ng/mL
same,Levodopa Cmax,[1],1356 ng/mL
same,Levodopa Cmin,[1],18.1 ng/mL
same,Levodopa tmax,[1],0.5 h
same,Levodopa AUCτ,[2],2871^d h · ng/mL
same,Levodopa Cavg,[2],957^d ng/mL
same,Levodopa Cmax,[2],1540 ng/mL
same,Levodopa Cmin,[2],455 ng/mL
same,Levodopa tmax,[2],1.5 h
same,"Levodopa Cmax (over all intakes of the 12-hour pharmacokinetics; Cmax,max)",[3],1999 (26.3) ng/mL
same,"Levodopa Cmin (over all intakes, excluding first predose; Cmin,min)",[3],267.0 (82.9) ng/mL
same,Levodopa AUCτ,[4],2269^b h · ng/mL
same,Levodopa Cavg,[4],756^b ng/mL
same,Levodopa Cmax,[4],1466 ng/mL
same,Levodopa Cmin,[4],283 ng/mL
same,Levodopa tmax,[4],1.0 h
same,Levodopa AUCτ,[5],2871^d h · ng/mL
same,Levodopa Cavg,[5],957^d ng/mL
same,Levodopa Cmax,[5],1530 ng/mL
same,Levodopa Cmin,[5],365 ng/mL
same,Levodopa tmax,[5],0.5 h
same,Levodopa AUCτ,[6],2076 ng·h/mL
same,Levodopa Cavg,[6],692 ng/mL
same,Levodopa Cmax,[6],1393 ng/mL
same,Levodopa Cmin,[6],18.6 ng/mL
same,Levodopa tmax,[6],0.75 h
same,Levodopa AUCτ,[7],3414^d h · ng/mL
same,Levodopa Cavg,[7],1138^d ng/mL
same,Levodopa Cmax,[7],1852 ng/mL
same,Levodopa Cmin,[7],559 ng/mL
same,Levodopa tmax,[7],1.5 h
same,"Levodopa Cmax (over all intakes of the 12-hour pharmacokinetics; Cmax,max)",[8],2130 (25.8) ng/mL
same,"Levodopa Cmin (over all intakes, excluding first predose; Cmin,min)",[8],264.5 (32.8) ng/mL
same,Levodopa AUCτ,[9],2637^c h · ng/mL
same,Levodopa Cavg,[9],879^c ng/mL
same,Levodopa Cmax,[9],1751 ng/mL
same,Levodopa Cmin,[9],266 ng/mL
same,Levodopa tmax,[9],1.5 h
same,Levodopa AUCτ,[10],2850^f h · ng/mL
same,Levodopa Cavg,[10],950^f ng/mL
same,Levodopa Cmax,[10],1310 ng/mL
same,Levodopa Cmin,[10],403 ng/mL
same,Levodopa tmax,[10],1.5 h
same,"Levodopa Cmin,min, geometric mean (90% CI)",[11],"218.9 (156.1, 307.0) ng/mL"
same,"Levodopa Cmax,max, geometric mean (90% CI)",[11],"1931 (1667, 2237) ng/mL"
same,"Levodopa Cmin,min, geometric mean (90% CI)",[12],"252.2 (211.4, 301.0) ng/mL"
same,"Levodopa Cmax,max, geometric mean (90% CI)",[12],"2059 (1782, 2380) ng/mL"
